Where “and” joins values, the source holds several entries; their conditions need not be identical. Identical values can stand only once. Like-named read-outs stand apart in the source and are kept apart here. Where only a bound is given, the exact number is not on record here.

For data set [1], the system named is L. donovani axenic amastigotes. Briefly: In vitro anti-leishmania activity (IC50 vs. L. donovani axenic amastigotes). The format is cell-based. Particulars: for IC50: Leishmania donovani.
The test system of a further data set is J774 macrophages. Nature of the data set: Toxicity against J774 macrophages (IC50). Particulars: Mus musculus, Tables I-III, V. In kind it is cell-based.
Data set [2] concerns Trypanosoma brucei rhodesiense. Nature of the data set: Anti-protozoan data: T.b.r. IC50. The following applies: Tables VI(a), VI(c), read-out: T.b.r. IC50. In kind it is cell-based.
The subject of another data set is Trypanosoma cruzi. Nature of the data set: Anti-protozoan data: T. cruzi IC50. The format is cell-based. Particulars: Tables VI(a), VI(c), read-out: T. cruzi IC50.
The test system of another data set is Plasmodium falciparum. Briefly: Anti-protozoan data: P. falcip. IC50. In kind it is cell-based. Particulars: Tables VI(a), VI(c), read-out: P. falcip. IC50.
For the next data set, the system named is DNA. Nature of the data set: DNA binding ΔTm. Particulars: Tables VI(a), VI(c).
For data set [3], the system named is Mycobacterium tuberculosis. Briefly: Compounds tested against Mycobacterium tuberculosis (MIC90). The format is cell-based. Particulars: read-out: M. tb. MIC90.
Another data set deals with Candida albicans. Briefly: Anti-fungal data: Candida albicans. In kind it is cell-based.
The subject of a further data set is Aspergillus fumigatus. Briefly: Anti-fungal data: Aspergillus fumigatus. In kind it is cell-based.
The next data set has as its system Cryptococcus neoformans. Briefly: Anti-fungal data: Cryptococcus neoformans. The format is cell-based.

In the case of `Cl.Cl.N=C(N)c1ccc2oc(CCc3cc4cc(C(=N)N)ccc4o3)cc2c1` [Compound 8, 2-(2-(5-Amidinobenzofuran-2-yl)ethyl)benzofuran-5-carboxamidine dihydrochloride], the “selectivity for axenic amastigotes over J774 macrophages (fold more active against the parasites compared to the mammalian host cells)” value in [1] (L. donovani vs. J774 macrophages) is on record as 14 fold. In addition, the 50% inhibitory concentration (IC50) (as a rule, the point on the concentration scale where inhibition reaches its midpoint) in data set [1] (Tables VI(a), VI(c), read-out: Leishmania donovani IC50) was 1.06 ± 0.18 µM; in [1] (axenic amastigotes, Tables I-V, read-out: IC50 vs. L. donovani), 1.06 ± 0.18 µM; in the data set on J774 macrophages, 15 ± 1 µM; in data set [2] it was 0.0079 µM; in the data set on Trypanosoma cruzi, 12.3 µM; in the data set with Plasmodium falciparum, 0.0025 µM. This compound also came in with an IC50 in “in vitro” of 21.5 µM. Further, the “DNA binding Δ Tm” value with DNA amounted to 6.1. For the same compound, in data set [3], the MIC90 (usually an inhibitory concentration at the 90% level, which refers to growth in some studies and to a panel of isolates in others) was 5.15 µg/mL and 11.6 µM. The MFC in the data set with Candida albicans (strain A39) and against Cryptococcus neoformans (strain H99) was 100 µg/mL each time. Also, the MIC80 (commonly an inhibitory concentration at the 80% level, which refers to growth in some studies and to a panel of isolates in others) in the data set on Candida albicans (strain A39) was 100 µg/mL; against Aspergillus fumigatus (strain DUMC 168.95), above 100 µg/mL; in the data set on Cryptococcus neoformans (strain H99) it was 100 µg/mL. Further, the MIC is 100 µg/mL in the data set on Candida albicans (strain A39, read-out: Candida albicans (A39) MIC100); above 100 µg/mL in the data set on Aspergillus fumigatus (strain DUMC 168.95, read-out: Aspergillus. Fumigatus (DUMC 168.95) MIC100); 100 µg/mL in the data set with Cryptococcus neoformans (strain H99, read-out: Cryptococcus neoformans (H99) MIC100).

These data come from patent US20080114047A1 (priority 2003, published 2008).
